From PubChem BioAssay (NCI)
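How tested: cells in 96-well plates exposed to compound for 48 hours at five concentrations. TGI is the concentration that stops growth completely.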

What was measured:
Assay in all cases: DTP human tumour cell line panel, 48 h
HCT-15 colon = tested on: HCT-15 colon
M14 melanoma = tested on: M14 melanoma
UACC-62 melanoma = tested on: UACC-62 melanoma
NCI-H460 lung = tested on: NCI-H460 lung
NCI/ADR-RES ovarian = tested on: NCI/ADR-RES ovarian
MCF7 breast = tested on: MCF7 breast
U251 CNS = tested on: U251 CNS
786-0 renal = tested on: 786-0 renal
MOLT-4 leukemia = tested on: MOLT-4 leukemia
NCI-H23 lung = tested on: NCI-H23 lung
UACC-257 melanoma = tested on: UACC-257 melanoma
MALME-3M melanoma = tested on: MALME-3M melanoma
OVCAR-3 ovarian = tested on: OVCAR-3 ovarian
RXF 393 renal = tested on: RXF 393 renal

Row | Structure (SMILES) | TGI (HCT-15 colon) [µM] | TGI (M14 melanoma) [µM] | TGI (UACC-62 melanoma) [µM] | TGI (NCI-H460 lung) [µM] | TGI (NCI/ADR-RES ovarian) [µM] | TGI (MCF7 breast) [µM] | TGI (U251 CNS) [µM] | TGI (786-0 renal) [µM] | TGI (MOLT-4 leukemia) [µM] | TGI (NCI-H23 lung) [µM] | TGI (UACC-257 melanoma) [µM] | TGI (MALME-3M melanoma) [µM] | TGI (OVCAR-3 ovarian) [µM] | TGI (RXF 393 renal) [µM]
1 | Cc1ccc2nc(-c3ccc(-c4nc5ccc(C)cc5o4)c(O)c3)oc2c1 | > 100 | > 100 | > 100 | > 100 | > 100 | > 100 | > 100 | > 100 | > 100 | > 100 | – | – | – | –
2 | C/C(=C(/C)c1cc[n+](C)cc1)c1cc[n+](C)cc1 | > 75 | > 75 | > 75 | > 75 | – | – | > 75 | > 75 | > 75 | > 75 | > 75 | > 75 | > 75 | > 75
3 | O=C(CSc1nc2ccc(I)cc2c(=O)n1Cc1ccccc1)NN1C(=O)CSC1c1ccccc1 (stereo unspecified) | 40.5 | 84.4 | 36.7 | 36.3 | 57.2 | 42.1 | 69.5 | > 100 | > 100 | 43.2 | 57.5 | – | 32.4 | 57.4
4 | Cn1nc(S(N)(=O)=O)s/c1=N/S(=O)(=O)c1ccc(N)cc1 | > 100 | > 100 | > 100 | > 100 | > 100 | – | > 100 | > 100 | > 100 | > 100 | – | > 100 | > 100 | > 100
5 | CN1C(=O)C(C#N)C2C[C@@]1(C)Oc1ccccc12 (stereo partly specified) | > 100 | > 100 | > 100 | > 100 | > 100 | > 100 | > 100 | > 100 | > 100 | > 100 | > 100 | – | > 100 | > 100
6 | C/C(CC(=O)Nc1ccccc1)=N\NC(N)=S | – | > 100 | > 100 | > 100 | – | – | > 100 | > 100 | > 100 | > 100 | > 100 | > 100 | > 100 | > 100
7 | O=C(/C=N/O)Nc1ccc(Cl)c(I)c1 | 63.9 | 43.7 | 35.4 | 47.2 | – | – | 39.4 | 88.4 | 56.5 | 42.3 | > 100 | 64.2 | 60.3 | 46.7
8 | Cc1cc(C)nc(NS(=O)(=O)c2ccc(Nc3nnc(/C=C/c4c(O)ccc5ccccc45)c(=O)n3N)cc2)n1 | 30.9 | 58.5 | 60.1 | – | 58.3 | 45.7 | – | 62.9 | > 100 | 57.7 | – | 92.7 | 56 | 55.3
9 | OCCSCC/C(=N\N=C(/CCSCCO)c1ccccc1)c1ccccc1 | > 100 | > 100 | > 100 | > 100 | – | – | > 100 | > 100 | > 100 | > 100 | > 100 | > 100 | > 100 | 99.7
10 | COc1ccc(C(c2cc(OC)c(OC)c(OC)c2)N2C(=O)CCC2C(=O)O)cc1 (stereo unspecified) | > 100 | > 100 | > 100 | > 100 | > 100 | > 100 | > 100 | > 100 | > 100 | > 100 | > 100 | > 100 | > 100 | –
11 | CC[C@H]1C=CCC[C@@]2(C[C@@H]3CC[C@H]4[C@@H](C(=O)OCCCCCCCCCCCCCCCC(=O)N(CCCNC(C)=O)C[C@H](CCNC(C)=O)OC(C)=O)[C@@]5(CCC[C@@H](C)O5)NC(=[N+]34)N2)O1 | 3.17 | 3.24 | 3.52 | 3.25 | – | 2.98 | 2.11 | 3.4 | 2.99 | 3.19 | 2.68 | 2.99 | 2.03 | 3.44
12 | COc1ccc2oc(=O)c(-c3csc(-c4ccccc4)n3)cc2c1 | > 100 | > 100 | > 100 | > 100 | – | > 100 | 52.4 | 34.3 | > 100 | – | > 100 | – | – | 59.3
13 | Cc1ccc(/C=C2\CCCCCC2=O)cc1 | > 100 | > 100 | > 100 | > 100 | – | – | > 100 | > 100 | > 100 | > 100 | > 100 | > 100 | > 100 | –
14 | Cc1ccc(S(=O)(=O)OI(O)CC(F)(F)F)cc1 | > 100 | > 100 | > 100 | > 100 | > 100 | > 100 | > 100 | > 100 | > 100 | > 100 | > 100 | – | > 100 | > 100
15 | CC(=O)OC1CC2C(C)(C)OC(=O)CC(OC(C)=O)[C@]2(C)C2CCC3(C)C(=CCC3c3ccoc3)[C@]12C (stereo partly specified) | > 100 | 46.5 | > 100 | > 100 | – | – | > 100 | > 100 | 52 | > 100 | – | 92.6 | 60 | > 100
16 | O=[N+]([O-])c1cc2ccc1OCc1cccc(n1)COc1ccc(cc1[N+](=O)[O-])C=NCCCCCCCCN=C2 | > 100 | > 100 | > 100 | > 100 | > 100 | > 100 | > 100 | > 100 | > 100 | > 100 | > 100 | > 100 | > 100 | –
17 | CC(=O)c1sc2n(C)c(=O)c3ccccc3[n+]2c1C | > 100 | > 100 | > 100 | > 100 | > 100 | > 100 | > 100 | > 100 | > 100 | > 100 | > 100 | – | > 100 | > 100
18 | CN(C)c1cccc(/C=C(\C#N)c2ccccc2)c1 | > 58.4 | > 47.2 | > 100 | 12.5 | 3.5 | – | 27.1 | > 60.9 | > 21.1 | 45 | > 71.7 | > 73.7 | 3.29 | 4.51
